Consider nine molecules from patent publication US12459951B2, “Compounds that interact with RAS superfamily proteins for treatment of cancers, inflammatory diseases, rasopathies, and fibrotic disease” (SHY Therapeutics, LLC, priority 2022, dated 2025).

The test system of assay [1] is KRas G12C mutant. Put plainly: Ras GTP Binding Domain Inhibition Assay (Ras Superfamily Assay). Conditions: 20 μM compound; for KRas G12C mutant + SOS: % inh.: with SOS; for KRas G12C mutant: % inh.: without SOS. A digest of the protocol:
(§1)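 Binding of 100 nM fluorescent GTP (Cy3 or Cy5, 45 min, room temperature) was read after washes from plate-captured His-tagged protein. Beforehand, compounds at 20 μM or in dilution series for IC50 sat 3 h on the protein in Tris buffer pH 7.4 or 7.0 with 1% DMSO, Sos GEF optionally added for the last hour.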

Assay [2] deals with KRas Q61H mutant. The assay is described as above. The following applies: 20 μM compound; for KRas Q61H mutant + SOS: % inh.: with SOS; for KRas Q61H mutant: % inh.: without SOS. The gist of the method:
as §1

Assay [3] concerns the target T1, Rho-A (Homo sapiens, UniProt P61586).
T1 construct: made in house
Described as above. The following applies: read-out: Rho-A: % inh.. A digest of the protocol: as §1

Assay [4] relates to PUMA expression. The assay is described as follows: Cell-based Puma expression assay (western blot). On the set-up: species or system human. The method, then: Biological Example 4: Puma Expression and Caspases Activation Assay
Protocols for Cell-Based Puma Expression and Caspase Activation Assays
Cell lines: All human tumor-derived cancer cell lines were purchased from American Type Culture Collection. Human tumor-derived cancer cell lines Panc-1 (expressing KRas G12D mutant), MiaPaca-2 (expressing KRas G12C mutant), A549 (expressing KRas G12S mutant), and A375 (expressing wild type KRas) were grown in complete DMEM-High Glucose medium and NCI-H1975 (expressing wild type KRas), MM.1R (expressing wild type KRas) and IM.9 (expressing wild type KRas) were grown in RPMI1640 medium. Human tumor-derived cancer cell line BT-549 (expressing wild type KRas) was grown in RPMI1640 medium with 11.8U insulin. All mediums were supplemented with penicillin (100 U/mL), streptomycin (100 μg/mL), and 10% heat-inactivated FBS at 37° C. in a humidified incubator with 5% CO2.
Method: Cells were plated at 300,000 to 800,000 cells/well density in a 6-well plate in the presence of 10% FBS. The next day small molecules to be tested were added to the cells in the final concentration of 3 μM in the presence of 0.3% DMSO for 48 hours incubation at 37° C. For IC50 value determination, serial dilutions of compounds were added to cells under the same conditions. Following 48 hours of incubation cells were lysed with lysis buffer containing 1% Triton X-100, EDTA, and Halt™ Protease & Phosphatase Inhibitor Cocktail (Thermo Scientific). Protein concentration was assessed by BCA protein assay (Thermo Scientific). Increase expression of PUMA and active/cleaved forms of caspase 3, caspase 6 and caspase 9 were detected by western blot.
Western blot protocol: Equal amounts of protein (15-50 μg) were separated by SDS-PAGE and transferred to nitrocellulose membranes (Invitrogen by Thermo Fisher Scientific). The membrane was stained with Ponceau S Stain (Boston BioProducts) to verify uniform protein loading. Membranes were blocked with 10% milk and expression levels of PUMA was assessed by incubating overnight at 4° C. with the antibody PUMA (D30C10) from Cell Signaling Technology (#12450) and active/cleaved forms of caspase 3, caspase 6 and caspase 9 by incubating overnight at 4° C. with the following antibodies: cleaved caspase-3 (Asp175) (5A1E), cleaved caspase-6 (Asp162) and cleaved caspase-9 (Asp330) (D2D4) (all antibodies from Cell Signaling Technology). Then the membranes were incubated with HRP-conjugated secondary antibody (Jackson Immunoresearch, West Grove, PA). Bands were incubated in Amersham ECL Prime Western Blotting Detection Reagent (GE Healthcare) and visualized using the ChemiDoc MP imaging system (Bio-Rad).
A general note: A western blot detects proteins with antibodies after separation by electrophoresis.

T1 sequence (P61586 whole entry): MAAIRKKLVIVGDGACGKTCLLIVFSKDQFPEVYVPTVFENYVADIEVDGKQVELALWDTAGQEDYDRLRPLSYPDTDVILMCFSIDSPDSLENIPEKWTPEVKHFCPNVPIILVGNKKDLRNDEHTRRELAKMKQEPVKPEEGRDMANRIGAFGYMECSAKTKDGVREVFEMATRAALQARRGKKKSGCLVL

For the molecule `CO[C@H]1CC[C@@H](Nc2nc(-c3ccccn3)nn3cc(-c4ccn(C(C)C)n4)c(C)c23)C1` (racemic) [Compound 9, rac 6-(1-Isopropyl-1H-pyrazol-3-yl)-N-((1R,3S)-3-methoxycyclopentyl)-5-methyl-2-(pyridin-2-yl)pyrrolo[2,1-f][1,2,4]triazin-4-amine], in assay [1], the “KRas G12C mutant + SOS: % inh.” value is 0 (0 = 0% inhibition) and the “KRas G12C mutant: % inh.” value is given as “B (B = 26-49% inhibition)”. Moreover, in assay [2], the “KRas Q61H mutant + SOS: % inh.” value is recorded as 0 (0 = 0% inhibition) and the “KRas Q61H mutant: % inh.” value is “A (A = 1-25% inhibition)”. In addition, the inhibition at 20 µM in assay [3] stood at 0%.
In the case of `Cc1c(-c2ccn(C)n2)cn2nc(-c3nccn3C)nc(Cl)c12` [Compound 99, 4-Chloro-5-methyl-2-(1-methyl-1H-imidazol-2-yl)-6-(1-methyl-1H-pyrazol-3-yl)pyrrolo[2,1-f][1,2,4]triazine], in assay [1], the “KRas G12C mutant + SOS: % inh.” value is “B (B = 26-49% inhibition)” and the “KRas G12C mutant: % inh.” value is reported as “B (B = 26-49% inhibition)”.
On to `COc1cc(Nc2nc(-c3nccn3C)nn3cc(-c4ccn(C(C)C)n4)c(C)c23)ncn1` [Compound 6, 6-(1-Isopropyl-1H-pyrazol-3-yl)-N-(6-methoxypyrimidin-4-yl)-5-methyl-2-(1-methyl-1H-imidazol-2-yl)pyrrolo[2,1-f][1,2,4]triazin-4-amine], for which, in assay [1], the “KRas G12C mutant + SOS: % inh.” value is listed as “C (C = 50-75% inhibition)” and the “KRas G12C mutant: % inh.” value is “C (C = 50-75% inhibition)”. In assay [2], the “KRas Q61H mutant + SOS: % inh.” value is “C (C = 50-75% inhibition)” and the “KRas Q61H mutant: % inh.” value was “C (C = 50-75% inhibition)”. In addition, the inhibition at 20 µM in assay [3] was in the range of 76 to 100%. The “Increased PUMA expression” value in assay [4] (A549, after 48 hours) is given as “yes”. In addition, the “Increased PUMA expression” value in assay [4] (BT-549, after 48 hours) is “yes”. For the same molecule, the “Increased PUMA expression” value in assay [4] (MiaPaca2, after 48 hours) is given as “yes”.
Regarding `Cc1c(-c2ccn(C(C)C)n2)cn2nc(-c3ccccn3)nc(O)c12` [Compound 8, 6-(1-Isopropyl-1H-pyrazol-3-yl)-5-methyl-2-(pyridin-2-yl)pyrrolo[2,1-f][1,2,4]triazin-4-ol], in assay [1], the “KRas G12C mutant + SOS: % inh.” value is given as “A (A = 1-25% inhibition)” and the “KRas G12C mutant: % inh.” value was 0 (0 = 0% inhibition). Further, in assay [2], the “KRas Q61H mutant + SOS: % inh.” value is listed as 0 (0 = 0% inhibition) and the “KRas Q61H mutant: % inh.” value was 0 (0 = 0% inhibition). For the same molecule, in assay [3], the inhibition at 20 µM amounted to 0%.
For the molecule `Cc1c(-c2ccn(C)n2)cn2nc(-c3nccn3C)nc(Nc3cc4n(n3)CCO4)c12` [Compound 124, N-(5-Methyl-2-(1-methyl-1H-imidazol-2-yl)-6-(1-methyl-1H-pyrazol-3-yl)pyrrolo[2,1-f][1,2,4]triazin-4-yl)-2,3-dihydropyrazolo[5,1-b]oxazol-6-amine], the “Increased PUMA expression” value in assay [4] (HCC1806, after 48 hours) is “yes”; in assay [4] (MiaPaca2, after 48 hours), “yes”; in assay [4] (NCI-H358, after 48 hours) it was “yes”.
Turning to `COc1ccnc(Nc2nc(-c3nccn3C)nn3cc(-c4ccn(C)n4)c(C)c23)c1` [Compound 102, N-(4-Methoxypyridin-2-yl)-5-methyl-2-(1-methyl-1H-imidazol-2-yl)-6-(1-methyl-1H-pyrazol-3-yl)pyrrolo[2,1-f][1,2,4]triazin-4-amine], the “Increased PUMA expression” value was “yes” in assay [4] (A549, after 48 hours) and “yes” in assay [4] (MiaPaca2, after 48 hours).
In the case of `Cc1c(-c2ccn(C(C)C)n2)cn2nc(-c3nccn3C)nc(Nc3nccn3C)c12` [Compound 93, 6-(1-Isopropyl-1H-pyrazol-3-yl)-5-methyl-N,2-bis(1-methyl-1H-imidazol-2-yl)pyrrolo[2,1-f][1,2,4]triazin-4-amine], in assay [1], the “KRas G12C mutant + SOS: % inh.” value was “C (C = 50-75% inhibition)” and the “KRas G12C mutant: % inh.” value was “D (D = 76-100% inhibition)”. In assay [2], the “KRas Q61H mutant + SOS: % inh.” value was “D (D = 76-100% inhibition)” and the “KRas Q61H mutant: % inh.” value was “C (C = 50-75% inhibition)”. Also, the inhibition at 20 µM in assay [3] lay within 76 to 100%.
As for `COc1ccnc(Nc2nc(-c3nccn3C)nn3cc(-c4ccn(C(F)F)n4)c(C)c23)n1` [Compound 95, 6-(1-(Difluoromethyl)-1H-pyrazol-3-yl)-N-(4-methoxypyrimidin-2-yl)-5-methyl-2-(1-methyl-1H-imidazol-2-yl)pyrrolo[2,1-f][1,2,4]triazin-4-amine], in assay [1], the “KRas G12C mutant + SOS: % inh.” value is reported as “B (B = 26-49% inhibition)” and the “KRas G12C mutant: % inh.” value is reported as “B (B = 26-49% inhibition)”. Also, in assay [2], the “KRas Q61H mutant + SOS: % inh.” value was “C (C = 50-75% inhibition)” and the “KRas Q61H mutant: % inh.” value is reported as “C (C = 50-75% inhibition)”. Also, the inhibition at 20 µM in assay [3] was in the range of 76 to 100%.
Turning to `COc1cc(Nc2nc(-c3nccn3C)nn3cc(-c4ccccn4)c(C)c23)ncn1` [Compound 94, N-(6-Methoxypyrimidin-4-yl)-5-methyl-2-(1-methyl-1H-imidazol-2-yl)-6-(pyridin-2-yl)pyrrolo[2,1-f][1,2,4]triazin-4-amine], in assay [1], the “KRas G12C mutant + SOS: % inh.” value is “B (B = 26-49% inhibition)” and the “KRas G12C mutant: % inh.” value is on record as “B (B = 26-49% inhibition)”. Besides, in assay [2], the “KRas Q61H mutant + SOS: % inh.” value is reported as “C (C = 50-75% inhibition)” and the “KRas Q61H mutant: % inh.” value is on record as “B (B = 26-49% inhibition)”. Besides, the inhibition at 20 µM in assay [3] fell in the range of 76 to 100%.
